Source: patent US4386099A, “Imidazolylphenyl amidines, pharmaceutical compositions containing same and use thereof” (Istituto de Angeli S.p.A., priority 1980, dated 1983)
Read-outs that look alike come from different tables or passages of the source.

Tests used:
[1] = biological target: T1, histamine H2-receptors (Cavia porcellus, UniProt P47747); test: In vitro inhibitory activity in histamine-induced tachycardia (positive chronotropic effect, isolated guinea pig atria); assay type: cell-based; details: reduction of histamine (10^-6 g/ml) H2-evoked response, pH 7.4, 32° C.
T1 construct: isolated guinea pig atria suspended in an organ bath; from tissue; host or cells: isolated guinea pig atria
Procedure: The positive chronotropic effect has been investigated in isolated guinea pig atria suspended in an organ bath (50 ml) containing oxygenated (O2 : 95%, CO2 : 5%) Krebs-Henseleit solution (pH 7.4) maintained at 32° C. The myocardial preparation, loaded at 1 gm of isometric tension, is allowed to stabilize for 60 minutes and myocardial contractions are recorded through an isometric lever connected to a strain-gauge coupler. The instantaneous rate is monitored with a cardiotachymeter and a heat-writing pen recorder. After a control run, responses (tachycardia) to histamine (10^-6 g/ml) are obtained three times at 30 minute intervals. The test compounds are added to the bath to the desired final concentration, and the atria are again injected with histamine. The chronotropic response obtained in the presence of the antagonist is then compared to the control response to histamine, and the percent reduction of the histamine H2 -evoked response is calculated. […] 3 Smooth Muscle, Ed Daniel E. E. Patron, M., Plenum Press. New York (1975), and Ash and Schild, Br. J. Pharmacol. Chemother. 27 427-439 (1966).

[2] = biological target: T2, histamine H2-receptors (Rattus norvegicus, UniProt P25102); test: In vivo anti-secretory activity in histamine-induced gastric secretion (stomach perfused rat); details: iv
T2 construct: from tissue; host or cells: stomach of the anaesthetised rat, in vivo
Procedure: The preparation of the animals in general anaesthesia (urethane, 1 gm/kg i.p.) and constant temperature, is achieved by inserting and typing in place polyethyl tubes (PE 50) in the esophagus and in the pyloric-antral region. After the stomach is washed to remove residual food, continuous perfusion of the stomach is started with saline, 0.5 ml/min (37° C.), primed by a Jobling peristaltic pump. After 30 minutes of perfusion adaptation, the stomach perfusate is collected in 30 minute samples, and the samples are titrated for acid content, expressed as μEq of 1 N NaOH. As acid output becomes constant, as a control, intravenous perfusion of histamine (1 mg/kg.hr) is started and maintained throughout the experimental period. […] The ED50 values are then calculated by standard procedure.

[3] = test system: H2-receptor; details: cited from earlier work; for Potency as H2-receptor antagonist: in vitro testing, vs cimetidine
[4] = in vivo; cited from earlier work
[5] = in vivo; cited from earlier work; remark: listed apart in the source
[6] = test system: H2-receptor; details: in man, vs burimamide; cited from earlier work
[7] = in vivo; cited from earlier work; remark: listed apart in the source
[8] = test system: gastric acid secretion; details: in vivo testing, vs cimetidine; cited from earlier work
[9] = stomach perfused rat, histamine 1 mg/kg.hr i.v., expressed with regard to the compound as a base, read-out: ED50

T2 sequence (P25102 whole entry, the tested form may be a part): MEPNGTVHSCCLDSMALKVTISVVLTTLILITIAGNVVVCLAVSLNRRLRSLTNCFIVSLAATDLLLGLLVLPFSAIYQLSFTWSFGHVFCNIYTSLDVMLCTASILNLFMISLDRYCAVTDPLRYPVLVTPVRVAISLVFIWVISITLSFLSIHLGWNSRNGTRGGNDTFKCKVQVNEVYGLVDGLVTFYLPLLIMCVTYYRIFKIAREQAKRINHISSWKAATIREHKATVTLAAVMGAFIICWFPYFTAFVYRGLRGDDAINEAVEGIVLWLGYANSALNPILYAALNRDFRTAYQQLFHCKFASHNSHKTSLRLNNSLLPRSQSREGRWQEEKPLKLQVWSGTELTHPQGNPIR
T1 sequence (P47747 whole entry): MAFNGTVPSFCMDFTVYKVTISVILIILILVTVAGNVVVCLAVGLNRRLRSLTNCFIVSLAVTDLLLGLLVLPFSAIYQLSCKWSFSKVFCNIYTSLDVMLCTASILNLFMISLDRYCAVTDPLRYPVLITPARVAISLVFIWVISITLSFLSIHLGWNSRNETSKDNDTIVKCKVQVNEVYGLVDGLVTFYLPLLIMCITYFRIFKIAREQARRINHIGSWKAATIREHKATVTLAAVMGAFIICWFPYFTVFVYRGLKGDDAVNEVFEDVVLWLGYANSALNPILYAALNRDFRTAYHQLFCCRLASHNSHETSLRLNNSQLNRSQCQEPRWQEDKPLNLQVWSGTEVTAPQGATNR

| SMILES | EC50 [1] | ED50 [2, 9] | further results |
| --- | --- | --- | --- |
| CN/C(=N/CCSCc1nc[nH]c1C)NC#N [Cimetidine] |  |  | ED50 ([2]; rat): 0.56 mg/kg; Potency as H2-antagonist ([3]; cimetidine vs metiamide): as potent as metiamide; Toxic side effects [4]: devoid of the toxic side effects of metiamide; Half-life [5]: relatively short |
| C(=Nc1ccc(-c2c[nH]cn2)cc1)NCC1CC1 [H, N-Cyclopropylmethyl-N'-[4-(imidazol-4-yl)-phenyl]-formamidine] | 48 nM | 0.0235 mg/kg |  |
| C(=Nc1ccc(-c2c[nH]cn2)cc1)NC1CC1 [I, N-Cyclopropyl-N'-[4-(imidazol-4-yl)-phenyl]-formamidine] | 379 nM | 0.0366 mg/kg |  |
| C=CC(C)NC=Nc1ccc(-c2c[nH]cn2)cc1 (stereo not drawn) [J, N-(α-Methylallyl)-N'-[4-(imidazol-4-yl)-phenyl]-formamidine] | 168 nM | 0.042 mg/kg |  |
| CC1(C)CC1CNC=Nc1ccc(-c2c[nH]cn2)cc1 (centres unmarked) [L, N-(2,2-Dimethyl)-cyclopropylmethyl-N'-[4-(imidazol-4-yl)-phenyl]-formamidine] | 500 nM | 0.034 mg/kg |  |
| C/N=C(\S)NCCSCc1[nH]cnc1C [Metiamide] |  |  | Potency and oral activity [6]: more potent and orally active in man than burimamide; Toxic side effects [4]: toxic side effects (agranulocytosis) |
| CNC(=S)NCCCCc1cnc[nH]1 [burimamide] |  |  | Oral bioavailability [7]: seemed to lack sufficient oral bioavailability |
| CNC(=C[N+](=O)[O-])NCCSCc1ccc(CN(C)C)o1 [ranitidine] |  |  | Potency as inhibitor of gastric acid secretion [8]: more potent than cimetidine; Potency as H2-receptor antagonist [3]: more potent than cimetidine |
| CNC(=NCCSCc1csc(N=C(N)N)n1)NC#N [tiotidine] |  |  | Potency as inhibitor of gastric acid secretion [8]: more potent than cimetidine; Potency as H2-receptor antagonist [3]: more potent than cimetidine |

Further lines, with some results ahead:

| EC50 [1] | ED50 [2, 9] | SMILES | further results |
| --- | --- | --- | --- |
| 92 nM | 0.0129 mg/kg | CC(C)NC=Nc1ccc(-c2c[nH]cn2)cc1 [B, N-Isopropyl-N'-[4-(imidazol-4-yl)-phenyl]-formamidine] |  |
| 93 nM | 0.024 mg/kg | C=CCNC=Nc1ccc(-c2c[nH]cn2)cc1 [C, N-Allyl-N'-[4-(imidazol-4-yl)-phenyl]-formamidine] |  |
| 300 nM | 0.02 mg/kg | CCNC=Nc1ccc(-c2c[nH]cn2)cc1 [Compound A, N-Ethyl-N'-[4-(imidazol-4-yl)-phenyl]-formamidine] |  |
| 150 nM | 0.0223 mg/kg | CCC(C)NC=Nc1ccc(-c2c[nH]cn2)cc1 (centres unmarked) [Compound E, N-sec-Butyl-N'-[4-(imidazol-4-yl)-phenyl]-formamidine] |  |
| 44 nM | 0.0111 mg/kg | CCCNC=Nc1ccc(-c2c[nH]cn2)cc1 [D, N-n-Propyl-N'-[4-(imidazol-4-yl)-phenyl]-formamidine] |  |
| 65 nM | 0.0259 mg/kg | CC(C)CNC=Nc1ccc(-c2c[nH]cn2)cc1 [F, N-Isobutyl-N'-[4-(imidazol-4-yl)-phenyl]-formamidine] |  |
| 74 nM | 0.0559 mg/kg | CC(C)=CCNC=Nc1ccc(-c2c[nH]cn2)cc1 [G] |  |
| 121 nM | 0.03 mg/kg | CC(C)(C)CNC=Nc1ccc(-c2c[nH]cn2)cc1 [K, N-Neopentyl-N'-[4-(imidazol-4-yl)-phenyl]-formamidine] |  |
